Data on ten molecules can be found in patent publication US20250325485A1, “STABLE COMPOSITIONS OF FOXY-5 HEXAPEPTIDE WITH HIGH SOLUBILITY” (WNTRESEARCH AB, priority 2021, published 2025).

Structures are written as SMILES. Values after ≈ are worked out from the molar mass of the structure shown. Structures can show the parent of a compound that is named as a salt. Where two headings read alike, the source gives them in different places. Peptide text beside a SMILES is read from it. * marks the point of attachment. For = O=C*

Series [1] is described as follows: Stability study at 40° C. for two and four weeks (HPLC purity, appearance). Type of series: physicochemical. The note with it: closed containers. On the procedure: A stability study of the compositions according to the first aspect (and the previously prepared trisodium salt) at 40° C. for two and four weeks was performed. Some general trends were found. […] The purity of the tri-salts varied more than the purity of the di-salts (HPLC purity 78-95% at 4 weeks for the tri-salts vs. 87-96% at 4 weeks for the di-salts). Furthermore, as appears from FIG. 6, the absolute purity of the compositions comprising amino acids was generally higher after 4 weeks at 40° C. when compared with compositions comprising other salt formers (value at 4 weeks: ˜90% vs. ˜85% for tri-salts and ˜95% vs. ˜90% for di-salts).
The stability test data for all formed compositions and the starting material itself (Foxy-5 free acid) were measured at 0, 2 and 4 weeks storage @40° C. and included in FIG. 10.
The following parameters for the substance-specific UPLC method were employed for the purity measurements of the stability samples: […]

Series [2] in a line: Conversion of Foxy-5 to mono-, di- and tri-sodium salts. Type of series: physicochemical. On the procedure: As Foxy-5 contains three carboxylic groups (Asp^2, Glu^5, and the C-terminal carboxylic acids), the mono, di, and tri-sodium salts were generated by treating aqueous slurries of Foxy-5 (25 g/L) with 1 eq., 2 eq. and 3 eq. of sodium hydroxide. As starting material, a batch of Foxy-5 free acid containing very low amounts of two known impurities, the aspartimide (<0.1%) and the dimer, (<0.1%) was used (structures, see FIG. 2).
The di-sodium salt could be completely dissolved within 10 minutes after addition of NaOH (2 eq., pH=4.57). […] After lyophilization, 0.07% dimer and 0.79% aspartimide were detected.
The tri-sodium salt dissolved within 5 minutes after addition of NaOH (3 eq., pH=6.76) with minimal increase of the aspartimide impurity, but increased formation of the dimer was observed. After lyophilization, 0.41% dimer and 0.17% of the aspartimide were detected.

A short description of a further series: FIG. 10. The procedure: Table printed on a drawing sheet, FIG. 10
The patent's description of the figure: FIG. 10
First reader's note: Storage stability of Foxy-5 free acid and its salts shown as HPLC purity and impurity levels (Ala, aspartimide, dimer) initially and after 2 and 4 weeks at 40°C; decimal commas as printed.

Series [3] is described as follows: pKa by potentiometric titration (Sirius T3). It is filed as physicochemical. Particulars: ISA water, 25° C., read-out: pKa [measured]. On the procedure:
2.0.0.0 software. An automated aqueous titration method was used with initial values of 1.0 mg of solid API dissolved in 1.5 mL of ISA water and three sequential titrations on the same sample. In all three titrations, the sample solution was adjusted with 0.5 M KOH to a starting pH of 12 and slowly titrated with 0.5 M HCl to a final pH of 2.
Each titration curve was fit using the SiriusT3Refine Vers. 2.0.0.0 software, and the corresponding pKa values were calculated. […]

Series [4] is described as follows: Solubility / lyophilization concentration of Foxy-5 drug substance (background statements). Type of series: physicochemical. Particulars: for solubility: water. An excerpt: The current manufacturing process of Foxy-5 applies a product concentration for the final lyophilization of only 3 g/L due to the limited solubility of the salt free drug substance (DS) in water. This presents a bottleneck which severely limits the production throughput for the commercial manufacture of Foxy-5.
While this achievement is impressive, it nonetheless remains problematic to produce Foxy-5 on commercial scale when the final step requires such a high dilution.
Consequently, an increase of batch size by other solubilizing techniques than solvent polarity adjustments was proposed.

A short description of series [5]: High pH treatment of aqueous Foxy-5 solution tracked by HPLC. Type of series: physicochemical. Particulars: after 2 hours at pH=9. The procedure: After stirring of the Foxy-5 solution for 2 hours at pH 9 (see FIG. 4), the aspartimide peak in the HPLC chromatogram completely disappeared (<LOD). It is known that ring opening of aspartimides occurs at high pH, leading to the formation of either the parent compound and the […] and the D-Asp derivatives. However, significant dimer formation was observed (2.5% after 2 hours at pH=9). The identification of the dimer in the chromatogram was confirmed by co-elution with separately synthesized reference material.

The conditions of series [6]: cited from earlier work.

With `CSCC[C@H](NC=O)C(=O)N[C@@H](CC(=O)O)C(=O)NCC(=O)N[C@@H](CS)C(=O)N[C@@H](CCC(=O)O)C(=O)N[C@@H](CC(C)C)C(=O)O` [DEA-P1] (For-MDGCEL-OH), the appearance after storage entry in series [1] (2 and 4 weeks at 40° C.) is “glassy appearance”.

Take `CSCC[C@H](NC=O)C(=O)N[C@@H](CC(=O)O)C(=O)NCC(=O)N[C@@H](CS)C(=O)N[C@@H](CCC(=O)O)C(=O)N[C@@H](CC(C)C)C(=O)O` [di-sodium salt] (For-MDGCEL-OH): the “time to complete dissolution after addition of NaOH” value in series [2] (aqueous slurry of Foxy-5 25 g/L) was not above 10 min. Also, the “aspartimide detected after lyophilization” value in series [2] (starting material aspartimide <0.1%, HPLC) was 0.79%. Besides, in series [2] (starting material dimer <0.1%, HPLC), the “dimer detected after lyophilization” value turned out to be 0.07%.

`CSCC[C@H](NC=O)C(=O)N[C@@H](CC(=O)O)C(=O)NCC(=O)N[C@@H](CS)C(=O)N[C@@H](CCC(=O)O)C(=O)N[C@@H](CC(C)C)C(=O)O` [DEA Di salt] (For-MDGCEL-OH): in “FIG. 10”, the “After 2 weeks @ 40°C | Ala (area%)” value was found to be 0 area%, the “After 2 weeks @ 40°C | Aspartimide (area%)” value was 4,98 area%, the “After 2 weeks @ 40°C | Dimer (area%)” value is listed as 1,18 area% and the “After 2 weeks @ 40°C | HPLC purity (area%)” value is given as 92,88 area%. Further, in the series “FIG. 10”, the “After 4 weeks @ 40°C | Ala (area%)” value is reported as 0,25 area%, the “After 4 weeks @ 40°C | Aspartimide (area%)” value is listed as 7,50 area%, the “After 4 weeks @ 40°C | Dimer (area%)” value is reported as 3,10 area% and the “After 4 weeks @ 40°C | HPLC purity (area%)” value is 87,11 area%.

In the case of `CSCC[C@H](NC=O)C(=O)N[C@@H](CC(=O)O)C(=O)NCC(=O)N[C@@H](CS)C(=O)N[C@@H](CCC(=O)O)C(=O)N[C@@H](CC(C)C)C(=O)O` [HIS Tri salt] (For-MDGCEL-OH), in the series “FIG. 10”, the “After 2 weeks @ 40°C | Ala (area%)” value worked out at 0 area%, the “After 2 weeks @ 40°C | Aspartimide (area%)” value is 1,97 area%, the “After 2 weeks @ 40°C | Dimer (area%)” value is 1,10 area% and the “After 2 weeks @ 40°C | HPLC purity (area%)” value was 96,41 area%. Besides, in the series “FIG. 10”, the “After 4 weeks @ 40°C | Ala (area%)” value is given as 0,00 area%, the “After 4 weeks @ 40°C | Aspartimide (area%)” value is on record as 2,43 area%, the “After 4 weeks @ 40°C | Dimer (area%)” value was 0,90 area% and the “After 4 weeks @ 40°C | HPLC purity (area%)” value is given as 95,32 area%.

For the molecule `CSCC[C@H](NC=O)C(=O)N[C@@H](CC(=O)O)C(=O)NCC(=O)N[C@@H](CS)C(=O)N[C@@H](CCC(=O)O)C(=O)N[C@@H](CC(C)C)C(=O)O` [NMG-P6] (For-MDGCEL-OH), the appearance after storage entry in series [1] (2 weeks at 40° C.) is recorded as “sticky, glassy appearance”.

With `CSCC[C@H](NC=O)C(=O)N[C@@H](CC(=O)O)C(=O)NCC(=O)N[C@@H](CS)C(=O)N[C@@H](CCC(=O)O)C(=O)N[C@@H](CC(C)C)C(=O)O` [Na Tri salt] (For-MDGCEL-OH), in the series “FIG. 10”, the “After 2 weeks @ 40°C | Ala (area%)” value is recorded as 13,4 area%, the “After 2 weeks @ 40°C | Aspartimide (area%)” value is 0,53 area%, the “After 2 weeks @ 40°C | Dimer (area%)” value was 13,20 area% and the “After 2 weeks @ 40°C | HPLC purity (area%)” value is reported as 68,15 area%. Besides, in the series “FIG. 10”, the “After 4 weeks @ 40°C | Ala (area%)” value is listed as 14,70 area%, the “After 4 weeks @ 40°C | Aspartimide (area%)” value is listed as 0,30 area%, the “After 4 weeks @ 40°C | Dimer (area%)” value is 16,80 area% and the “After 4 weeks @ 40°C | HPLC purity (area%)” value is 60,34 area%.

In the case of `CSCC[C@H](NC=O)C(=O)N[C@@H](CC(=O)O)C(=O)NCC(=O)N[C@@H](CS)C(=O)N[C@@H](CCC(=O)O)C(=O)N[C@@H](CC(C)C)C(=O)O` [NH3 Di salt] (For-MDGCEL-OH), in the series “FIG. 10”, the “After 2 weeks @ 40°C | Ala (area%)” value is given as 0 area%, the “After 2 weeks @ 40°C | Aspartimide (area%)” value is 4,45 area%, the “After 2 weeks @ 40°C | Dimer (area%)” value was 0,38 area% and the “After 2 weeks @ 40°C | HPLC purity (area%)” value was 92,27 area%. In the series “FIG. 10”, the “After 4 weeks @ 40°C | Ala (area%)” value is recorded as 0,00 area%, the “After 4 weeks @ 40°C | Aspartimide (area%)” value is listed as 5,52 area%, the “After 4 weeks @ 40°C | Dimer (area%)” value is recorded as 0,27 area% and the “After 4 weeks @ 40°C | HPLC purity (area%)” value is 89,75 area%.

As for `CSCC[C@H](NC=O)C(=O)N[C@@H](CC(=O)O)C(=O)NCC(=O)N[C@@H](CS)C(=O)N[C@@H](CCC(=O)O)C(=O)N[C@@H](CC(C)C)C(=O)O` [Foxy-5, For-Met-Asp-Gly-Cys-Glu-Leu-OH] (For-MDGCEL-OH), the pKa – broadly, the pH at which an ionisable group is half protonated – in series [3] (ASP carboxylic (acidic)) was 3.98; in series [3] (CYS thiol (acidic)), 9.01; in series [3] (GLU carboxylic (acidic)), 4.79; in series [3] (terminal carboxylic (acidic)), 3.39. The “DS concentration applicable in alternative lyophilization process” value in series [4] (aqueous 30% acetonitrile solution as solvent) is “up to 7 g/L”. Besides, in series [4] (free Foxy-5 hexapeptide, for comparison, listed as free Foxy-5 peptide), the aqueous solubility (commonly the dissolved amount per volume that the medium holds) is 3000 µg/mL (≈ 4.32 mM). The solubility in series [4] (free Foxy-5 hexapeptide, for comparison, read-out: aqueous solubility) is approximately 3000 µg/mL (≈ 4.32 mM); in series [4] (read-out: product concentration for the final lyophilization, limited by solubility of salt free drug substance in water), 3000 µg/mL. The molecule also yielded a dimer formation in series [5] of 2.5%.

For the molecule `CSCC[C@H](NC=O)C(=O)N[C@@H](CC(=O)O)C(=O)NCC(=O)N[C@@H](CS)C(=O)N[C@@H](CCC(=O)O)C(=O)N[C@@H](CC(C)C)C(=O)O` [mono-sodium salt] (For-MDGCEL-OH), the “dissolution after NaOH addition” value in series [2] (aqueous slurry of Foxy-5 25 g/L, 1 eq. NaOH, pH=3.84) was “could not be completely dissolved”.

As for `NC(CO)(CO)CO` [tromethamine], in series [6], the “pKa of the salt-forming base” value is on record as 8.0.
